Patent publication US20070149457A1, “Stable solid forms of enterostatin” (priority 2005, published 2007)

Experiments:
[1] = Humidity stress experiments at 58% relative humidity; format: physicochemical; conditions: for Observations after humidity stress: 58% RH; for Physical state after humidity stress: 58% relative humidity for 4 or 10 days
Description: A sample of this enterostatin acetate, 1-hydroxy-2-naphthoic acid co-complex of the invention was stressed at 58% relative humidity for 4 or 10 days.
A sample of this enterostatin chloride, 1-hydroxy-2-naphthoic acid co-complex of the invention was stressed at 58% relative humidity for 4 or 10 days.
A sample of each co-complex of the above examples was stressed at 58% relative humidity for either 4 or 10 days.
The cocrystal guests piperazine and 1-OH-2-napthoic acid were stressed at 58% relative humidity.

[2] = Moisture balance (weight change with relative humidity); format: physicochemical
Experimental: Analytical techniques discussed below were conventional unless otherwise specified. In particular, differential scanning calorimetry and moisture balance experiments were carried out according to standard techniques. NMR was in D2O.
FIG. 3 provides moisture balance of this enterostatin acetate, 1-hydroxy-2-naphthoic acid co-complex of the invention.

## O=C(O)c1ccc2ccccc2c1O [1-OH-2-napthoic acid, reference compound]
[1]; 14 days
  Observations after humidity stress: Light brown chunks
[1]; 14 days, listed as 1-OH-2-napthoic
  Observations after humidity stress: remained a solid

## C1CNCCN1 [Piperazine, reference compound]
[1]; 5 days
  Observations after humidity stress: Oil puddle
[1]; 14 days
  Observations after humidity stress: Oil puddle

## Enterostatin Acetate, 1-Hydroxy-2-naphthoic Acid [Example 2]
[2]; from 5 to 95% relative humidity
  weight gain (moisture balance): 22%
[2]; from 95 to 5% relative humidity
  weight loss (moisture balance): 24%
[1]; 4 days
  Observations after humidity stress: Bits, broken glass
[1]
  Physical state after humidity stress: remained solid

## Enterostatin Chloride, 1-Hydroxy-2-naphthoic Acid [Example 3]
[1]; 4 days
  Observations after humidity stress: Irregulars, chunks
[1]
  Physical state after humidity stress: remained solid

## Enterostatin Chloride, Camphoric Acid [Example 5]
[1]; 10 days
  Observations after humidity stress: Deliquesced

## Enterostatin Sulfate, Hippuric Acid [Example 7]
[1]; 10 days
  Observations after humidity stress: Tacky white goo
